Measurements: patent US9365489B2, “Nitrooxy alkanoic acids and derivatives thereof in feed for reducing methane emission in ruminants, and/or to improve ruminant performance” (priority 2009, dated 2016)
Marks after values point to notes of the source that are not given here.

Key:
[1] = system: rumen fermentation parameters; assay: In vivo test: rumen volatile fatty acids and ammonia nitrogen; conditions: rumen of sheep; for iso-valeric (VFA profile): control 1.60; for Valeric (VFA profile): control 1.69; for Butiric (VFA profile): control 3.69; for C2/C3 (acetate to propionate ratio): control 4.59; for iso-butiric (VFA profile): control 6.73; for Propionic (VFA profile): control 15.7; for NH3—N (ammonia Nitrogen concentration): control 42.5; for Acetic (VFA profile): control 70.6; for Total volatile fatty acid concentration: control 111.3
Source text: (§1) The experimental design consisted of a cross-over design with 2 sheep per treatment in each period. The trial consisted in 3 consecutive periods of: 14 days of adaptation to the dose plus three consecutive days of methane measurements in chambers. This 14 days adaptation phase was established as the period necessary for wash out between different doses assayed in consecutive periods. During the last two days of methane measurements in chambers rumen contents samples were collected two hours after the morning feeding, sub sampled and immediately frozen prior DNA extraction and determination of volatile fatty acids and ammonia nitrogen concentration. Experimental animals were randomly allocated in three sub-groups of 2 animals and were assigned one of the three treatments (control, dose 1 and dose 2). The 3 sub-groups started the adaptation period with a gap of three days so they had the same number of adaptation days prior to methane measurement in the chambers. Each animal was held in cages with constant access to fresh water. The diet provided to the animals consisted of alfalfa hay chopped at 15 to 20 cm and concentrate in a proportion 1:1 at approximately 1.1 times the energy requirements maintenance level (Prieto et al, 1990) plus mineral-vitamin supplement. Fresh matter intake was monitored daily for each animal throughout the trial. The diet was provided to animals in two equal meals at 9.00 h and 14.00 h.
The additive was provided twice a day through the ruminal cannula at the same time as the diet. The corresponding amount to each dose was added into 10 grams of grounded concentrate and wrapped in cellulose paper immediately before it was placed in the rumen. In order to avoid the volatility of the active molecule, both additives were kept in a cold room at 4° C. where the daily process of dispensing it in the cellulose bags was carried out.
The doses were 50 (dose 1) and 500 (dose 2) mg/animal per day. The higher dose was reached after 3 days of gradual increases (50, 200 and 500 mg), so the whole adaptation period was consequently extended for 3 more days.
Volatile fatty acids were analysed by gas chromatography and ammonia N concentration by colorimetry according to (Cantalapiedra-Híjar et al. Journal of Animal Science. 87, 622-631, 2009).
Individual methane emissions, VFA profiles, ratio of acetate to propionate, ammonia N concentration, and log10 transformations of concentration of total bacteria, total protozoa and methanogenic archaea were analyzed for the following effects: additive dose, day of measurement, and their interaction using a repeated measures analysis of variance under the cross-over design arrangement of the experiment. The standard error of the mean (SEM) was computed for each analysis. No significant effect of the measuring day or its interaction with additive dose was detected in either experiments, so only the effect of the dose is included in the tables. Means were further compared using a least significant difference (LSD) procedure. The SPSS for Windows, version 14.0 (2005; SPSS Inc., Chicago, Ill.) was used for data entry and statistical analysis.

methanogenic archaea = assay: In vivo test: qPCR of methanogenic archaea in rumen contents; conditions: rumen of sheep; for Methanogenic archaea, log10: control 3.59; for Methanogenic archaea concentration: control 5.60 × 10^3
Source text: as §1
(§2) Samples of rumen contents were freeze-dried and thoroughly mixed by physical disruption using a bead beater (Mini-bead Beater; BioSpec Products, Bartlesville, Okla., USA) before DNA extraction, which was performed from approximately 50 mg sample using the QIAamp® DNA Stool Mini Kit (Qiagen Ltd, West Sussex, UK) following the manufacturer's instructions with the modification that a higher temperature (95° C.) was used for lysis incubation. DNA samples were used as templates for quantitative real-time PCR (qPCR) amplification. The numbers of total bacteria, total protozoa and total methanogenic archaea were quantified by Real Time—PCR (qPCR).
(§3) Different primer sets were used to amplify 16S rRNA gene-targeted total bacteria (Maeda et al. FEMS Inmunology and Medical Microbiology 39, 81-86, 2003), and protozoa (Sylvester et al. Journal Dairy Science. 88, 2083-2095 2005). […] The amplification efficiency was evaluated for each pair of primers with the following program: 5 min cycle at 95° C., 40 cycles at 95° C. for 15 s, 60° C. for 30 s, 72° C. for 55 s and, 75° C. during 6 s for fluorescent emission measures. The melting curve was built by increasing temperature from 55° C. to 95° C. and reading were taken every 5° C. […] The absolute amount of bacteria, protozoa and methanogenic archaea expressed as the number of DNA copies, was determined by using standards. […]

total bacteria (16SrRNA) = assay: In vivo test: qPCR of total bacteria in rumen contents; conditions: rumen of sheep; for Total bacteria concentration: control 1.19 × 10^9; for Total bacteria, log10: control 9.03
Source text: as §1, §2, §3

protozoa (18SrRNA) = assay: In vivo test: qPCR of total protozoa in rumen contents; conditions: rumen of sheep; for Total protozoa concentration: control 2.38 × 10^6; for Total protozoa, log10: control 6.35
Source text: as §1, §2, §3

## CCOC(=O)CCO[N+](=O)[O-] [Ethyl-3-nitrooxy propionate]
[1]; Dose 1 (50 mg/animal per day)
  iso-valeric (VFA profile): 1.50 mol/100 mol
  Valeric (VFA profile): 1.55^a mol/100 mol
  Butiric (VFA profile): 3.50 mol/100 mol
  C2/C3 (acetate to propionate ratio): 4.26^ab
  iso-butiric (VFA profile): 5.57^a mol/100 mol
  Propionic (VFA profile): 16.8^ab mol/100 mol
  NH3—N (ammonia Nitrogen concentration): 40.5 mg/100 ml
  Acetic (VFA profile): 71.0^a mol/100 mol
  Total volatile fatty acid concentration: 123.3^a mmol/l
[1]; Dose 2 (500 mg/animal per day)
  iso-valeric (VFA profile): 1.76 mol/100 mol
  Valeric (VFA profile): 2.42^b mol/100 mol
  Butiric (VFA profile): 3.47 mol/100 mol
  C2/C3 (acetate to propionate ratio): 3.57^b
  iso-butiric (VFA profile): 8.06^b mol/100 mol
  Propionic (VFA profile): 18.8^b mol/100 mol
  NH3—N (ammonia Nitrogen concentration): 40.1 mg/100 ml
  Acetic (VFA profile): 65.5^b mol/100 mol
  Total volatile fatty acid concentration: 104.1^b mmol/l
Methanogenic archaea; Dose 1 (50 mg/animal per day)
  Methanogenic archaea, log10: 3.57 log10
  Methanogenic archaea concentration: 5.43 × 10^3 copy gene numbers/g fresh matter
Methanogenic archaea; Dose 2 (500 mg/animal per day)
  Methanogenic archaea, log10: 3.45 log10
  Methanogenic archaea concentration: 4.34 × 10^3 copy gene numbers/g fresh matter
Total bacteria (16SrRNA); Dose 1 (50 mg/animal per day)
  Total bacteria concentration: 1.43 × 10^9 copy gene numbers/g fresh matter
  Total bacteria, log10: 9.08 log10
Total bacteria (16SrRNA); Dose 2 (500 mg/animal per day)
  Total bacteria concentration: 1.63 × 10^9 copy gene numbers/g fresh matter
  Total bacteria, log10: 9.18 log10
Protozoa (18SrRNA); Dose 1 (50 mg/animal per day)
  Total protozoa concentration: 2.08 × 10^6 copy gene numbers/g fresh matter
  Total protozoa, log10: 6.28 log10
Protozoa (18SrRNA); Dose 2 (500 mg/animal per day)
  Total protozoa concentration: 2.77 × 10^6 copy gene numbers/g fresh matter
  Total protozoa, log10: 6.43 log10
